Reference: patent US20100190688A1, “Tetrapeptide analogs” (priority 2004, published 2010)
Structures can show the parent of a compound that is named as a salt. Where two headings read alike, the source gives them in different places.

How the values were obtained:
[1] = biological target: T1, BIR3-mediated Caspase-9 inhibition (UniProt Q9R0I6); experiment: Caspase-9 rescue assay (relief of BIR3-mediated Caspase-9 inhibition); format: biochemical, human Caspase-9; Rat or Chicken BIR3; details: average EC50, substrate Ac-LEHD-amc, pH 6.5
T1 construct: Nothing is printed for this assay
Method: Additionally the compounds and compositions can be evaluated for their ability to achieve relief of BIR3-mediated Caspase-9 inhibition by measuring Caspase-9 reactivation. The fluorogenic substrate Ac-LEHD-7-amido-4-methylcoumarin is used in these methods. EC50 values of tested BIR3 inhibitors or Caspase-9 rescuers is calculated from the percentage of Caspase-9 reactivation in the mixtures containing serially diluted concentrations of tested compound. Typically, 10-point curves are generated for such EC50 determination.
Relief of BIR3-mediated Caspase-9 inhibition by BIR3 inhibitors was assayed by measuring Caspase-9 reactivation using the fluorogenic substrate Ac-LEHD-7-amido-4-methylcoumarin. A truncated form of human Caspase-9 that lacks the N-terminal Caspase recruitment domain (EPro-Caspase-9 or p35/p12) was used in the assay. This form of the enzyme has the full catalytic activity and the same substrate specificity as the full-length protein in the Apaf-1/Cytochrome C/dATP/Caspase-9 reconstituted system. Rat or Chicken BIR3 was used in this assay. […] This mixture was incubated for 40 min to allow equilibration at 25° C., and the assay progression was subsequently followed by monitoring the formation of fluorescent 7-amido-4-methylcoumarin over time at 460 nm using an excitation wavelength of 360 nm. […] EC50 values of tested BIR3 inhibitors or Caspase-9 rescuers were calculated from the percentage of Caspase-9 reactivation in the mixtures containing serially diluted concentrations of tested compound.

BIR3 domain of rat XIAP = BIR3 domain of rat XIAP (Rattus norvegicus, UniProt Q9R0I6); experiment: Fluorescence polarization assay, binding to BIR3 from rat XIAP
Sequence of BIR3 domain of rat XIAP (Q9R0I6 241-355): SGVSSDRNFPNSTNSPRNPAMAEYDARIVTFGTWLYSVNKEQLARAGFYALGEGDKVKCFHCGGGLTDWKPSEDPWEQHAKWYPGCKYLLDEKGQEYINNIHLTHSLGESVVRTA
Method: In fluorescence polarization assays a fluorescent probe is used. The binding affinity of compounds to BIR3 is measured by competitive displacement of a fluorescent probe using fluorescence polarization anisotropy. […] In other embodiments, the probe used is 6-(6-Hydroxy-3-oxo-3H-xanthen-9-yl)-N-(5-(2-methylamino-propionylamino)-6-oxo-6-[4-(1,2,3,4-tetrahydro-naphthalen-1-ylcarbamoyl)-thiazolidin-3-yl]-hexyl)-isophthalamic acid.
The binding affinity of compounds provided herein for rat BIR3 was measured by competitive displacement of a fluorescent probe using fluorescence polarization anisotropy. […] Control conditions were set up on each plate and include free probe 1 alone (5 nM), fully bound probe (5 μM BIR3+5 nM probe 1) and binding buffer blank. The-EC50 of binding was computed from a 4-parameter fit of the measured anisotropies using the SoftMax Pro 4.6 software package (Molecular Dynamics, Sunnyvale, Calif.).
Alternatively, probe 1 was substituted with probe 2: 6-(6-Hydroxy-3-oxo-3H-xanthen-9-yl)-N-{5-(2-methylamino-propionylamino)-6-oxo-6-[4-(1,2,3,4-tetrahydro-naphthalen-1-ylcarbamoyl)-thiazolidin-3-yl]-hexyl}-isophthalamic acid, for rat BIR3 and the concentrations of assay components changed. […] Controls were adjusted accordingly.

Structure (SMILES)	EC50 [1] [nM]	EC50 (BIR3 domain of rat XIAP) [nM]	EC50 (BIR3 domain of rat XIAP; read-out: EC50 for binding to BIR3, average EC50, BIR3 domain of rat XIAP, competitive displacement of fluorescent probe) [nM]
CNC(C)C(=O)NC1CCC(=O)N2CCC(C(=O)NC3CCCc4ccccc43)N2C1=O (centres unmarked) [8-(2-Methylamino-propionylamino)-5,9-dioxo-hexahydro-pyrazolo[1,2-a][1,2]diazepine-1-carboxylic acid (1,2,3,4-tetrahydro-naphthalen-1-yl)-amide]	1000 to 10000	< 1000	
CN[C@@H](C)C(=O)N[C@H]1CCCN2CC[C@@H](C(=O)N[C@@H]3CCCc4ccccc43)N2C1=O [8-(2-Methylamino-propionylamino)-9-oxo-hexahydro-pyrazolo[1,2-a][1,2]diazepine-1-carboxylic acid (1,2,3,4-tetrahydro-naphthalen-1-yl)-amide]	1000 to 10000	< 1000	
CNC(C)C(=O)NC(C(=O)N(CCCCCNC(=O)OCc1ccccc1)CC(=O)NC1CCCc2ccccc21)C(C)C (centres unmarked) [(5-{[3-Methyl-2-(2-methylamino-propionylamino)-butyryl]-[(1,2,3,4-tetrahydro-naphthalen-1-ylcarbamoyl)-methyl]-amino}-pentyl)-carbamic acid benzyl ester]	1000 to 10000	< 1000	
CN[C@@H](C)C(=O)N[C@H](C(=O)N(C)[C@@H](CCCNC(=N)NS(=O)(=O)c1ccc(C)cc1)C(=O)N[C@@H]1CCCc2ccccc21)C(C)C [(S)-2-((S)-N,3-dimethyl-2-((S)-2-(methylamino)propanamido)butanamido)-N-((R)-1,2,3,4-tetrahydronaphthalen-1-yl)-5-(3-Htosylguanidino)pentanamide; 2,2,2-trifluoroacetic acid salt]	< 1000		< 1000
CNC(C)C(=O)NC(C(=O)NC(COCc1ccccc1)C(=O)NC1CCCc2ccccc21)C(C)C (centres unmarked) [N-[2-Benzyloxy-1-(1,2,3,4-tetrahydro-naphthalen-1-ylcarbamoyl)-ethyl]-3-methyl-2-(2-methylamino-propionylamino)-butyramide]	1000 to 10000	< 1000	
CNC(C)C(=O)NC(C(=O)NC(CCN)C(=O)NC1CCCc2ccccc21)C(C)C (centres unmarked) [N-[3-Amino-1-(1,2,3,4-tetrahydro-naphthalen-1-ylcarbamoyl)-propyl]-3-methyl-2-(2-methylamino-propionylamino)-butyramide]	1000 to 10000	< 1000	
CNC(C)C(=O)NC(C(=O)NC(CCOCc1ccccc1)C(=O)NC1CCCc2ccccc21)C(C)C (centres unmarked) [N-[3-Benzyloxy-1-(1,2,3,4-tetrahydro-naphthalen-1-ylcarbamoyl)-propyl]-3-methyl-2-(2-methylamino-propionylamino)-butyramide]	1000 to 10000	< 1000	
CNC(C)C(=O)NC(C(=O)NC(CCO)C(=O)NC1CCCc2ccccc21)C(C)C (centres unmarked) [N-[3-Hydroxy-1-(1,2,3,4-tetrahydro-naphthalen-1-ylcarbamoyl)-propyl]-3-methyl-2-(2-methylamino-propionylamino)-butyramide]	1000 to 10000	< 1000	
CNC(C)C(=O)NC(C(=O)NC(C(=O)NC1CCCc2ccccc21)C1CCCCC1)C(C)C (centres unmarked) [N-[Cyclohexyl-(1,2,3,4-tetrahydro-naphthalen-1-ylcarbamoyl)-methyl]-3-methyl-2-(2-methylamino-propionylamino)-butyramide]	< 1000	< 1000	
CNC(C)C(=O)NC(C(=O)N1CCCC1C(=O)NN(Cc1ccccc1)Cc1ccccc1)C(C)(C)C (centres unmarked) [N-{1-[2-(N′,N′-Dibenzyl-hydrazinocarbonyl)-pyrrolidine-1-carbonyl]-2,2-dimethyl-propyl}-2-methylamino-propionamide]	1000 to 10000	< 1000	
CNC(C)C(=O)NC(C(=O)N1Cc2ccccc2CC1C(=O)NN(c1ccccc1)c1ccccc1)C(C)C (centres unmarked) [N-{1-[3-N′,N′-Diphenyl-hydrazinocarbonyl)-3,4-dihydro-1H-isoquinoline-2-carbonyl]-2-methyl-propyl}-2-methylamino-propionamide]	> 10000	> 10000	
CNC(C)C(=O)NC(C(=O)N1CSCC1C(=O)NN(Cc1ccccc1)Cc1ccccc1)C(C)C (centres unmarked) [N-{1-[4-(N′,N′-Dibenzyl-hydrazinocarbonyl)-thiazolidine-3-carbonyl]-2-methyl-propyl}-2-methylamino-propionamide]	< 1000	< 1000	
CNC(C)C(=O)NC(C(=O)N1CSCC1C(=O)NN(c1ccccc1)c1ccccc1)C(C)C (centres unmarked) [N-{1-[4-(N′,N′-Diphenyl-hydrazinocarbonyl)-thiazolidine-3-carbonyl]-2-methyl-propyl}-2-methylamino-propionamide]	1000 to 10000	< 1000	
CNC(C)C(=O)NC(C(=O)N1CCCC1C(=O)NN(C)c1ccccc1)C(C)(C)C (centres unmarked) [N-{2,2-Dimethyl-1-[2-(N′-methyl-N′-phenyl-hydrazinocarbonyl)-pyrrolidine-1-carbonyl]-propyl}-2-methylamino-propionamide]	1000 to 10000	< 1000	
CCCCCN1C(=O)CCC(NC(=O)C(C)NC)C(=O)N1CC(=O)NC1CCCc2ccccc21 (centres unmarked) [N-{3,7-Dioxo-1-pentyl-2-[(1,2,3,4-tetrahydro-naphthalen-1-ylcarbamoyl)-methyl]-[1,2]diazepan-4-yl}-2-methylamino-propionamide]	> 10000	1000 to 10000	
CNC(C)C(=O)NC(C(=O)NC(CCNC(=O)OCc1ccccc1)C(=O)NC1CCCc2ccccc21)C(C)C (centres unmarked) [[3-[3-Methyl-2-(2-methylamino-propionylamino)-butyrylamino]-3-(1,2,3,4-tetrahydro-naphthalen-1-ylcarbamoyl)-propyl]-carbamic acid benzyl ester]	1000 to 10000	< 1000	
CNC(C)C(=O)NC(C(=O)NC(CCCCNC(=O)OCc1ccccc1Cl)C(=O)NC1CCCc2ccccc21)C(C)C (centres unmarked) [[5-[3-Methyl-2-(2-methylamino-propionylamino)-butyrylamino]-5-(1,2,3,4-tetrahydro-naphthalen-1-ylcarbamoyl)-pentyl]-carbamic acid 2-chloro-benzyl ester]	< 1000	< 1000	
CNC(C)C(=O)NC(C(=O)N(C)C(CCCCNC(=O)OCc1ccccc1)C(=O)NC1CCCc2ccccc21)C(C)C (centres unmarked) [[5-{Methyl-[3-methyl-2-(2-methylamino-propionylamino)-butyryl]-amino}-5-(1,2,3,4-tetrahydro-naphthalen-1-ylcarbamoyl)-pentyl]-carbamic acid benzyl ester]	1000 to 10000	< 1000	
CNC(C)C(=O)NC(CCCCNC(=O)OCC1c2ccccc2-c2ccccc21)C(=O)N1CSCC1C(=O)NC1CCCc2ccccc21 (centres unmarked) [{5-(2-Methylamino-propionylamino)-6-oxo-6-[4-(1,2,3,4-tetrahydro-naphthalen-1-ylcarbamoyl)-thiazolidin-3-yl]-hexyl}-carbamic acid 9H-fluoren-9-ylmethyl ester]	< 1000	< 1000	
